From patent publication US8889672B2, “Compounds, formulations, and methods of protein kinase C inhibition” (The Regents of The University of Michigan, priority 2011, dated 2014) come the findings set out here.

The target in the test is aPKCζ (Homo sapiens (Human), UniProt Q05513). The test is described as follows: Kinase-Glo end-point assay, IC50 against aPKCζ. The following applies: 125 ng/ml aPKCζ, 25 μM CREBtide, 0.1 μM ATP. On the technique in general: Kinase-Glo measures the ATP left after a reaction by luminescence.
aPKCζ, sequence (Q05513 whole entry): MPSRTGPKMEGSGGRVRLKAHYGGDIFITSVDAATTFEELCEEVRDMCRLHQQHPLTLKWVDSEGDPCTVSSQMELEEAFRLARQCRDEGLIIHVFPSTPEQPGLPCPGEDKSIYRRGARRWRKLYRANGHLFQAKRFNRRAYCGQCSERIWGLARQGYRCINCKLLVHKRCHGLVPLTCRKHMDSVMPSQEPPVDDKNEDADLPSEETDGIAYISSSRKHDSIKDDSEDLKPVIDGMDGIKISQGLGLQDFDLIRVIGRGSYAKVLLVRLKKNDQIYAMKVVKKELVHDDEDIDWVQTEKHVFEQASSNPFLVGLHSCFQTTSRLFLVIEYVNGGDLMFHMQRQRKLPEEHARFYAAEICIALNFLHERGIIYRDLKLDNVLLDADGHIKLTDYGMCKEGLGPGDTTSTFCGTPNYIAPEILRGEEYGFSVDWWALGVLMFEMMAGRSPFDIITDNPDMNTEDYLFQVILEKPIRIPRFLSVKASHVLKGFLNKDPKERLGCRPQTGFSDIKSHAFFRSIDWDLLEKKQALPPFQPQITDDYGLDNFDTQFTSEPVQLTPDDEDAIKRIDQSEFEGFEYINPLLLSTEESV

One may read the IC50 as the concentration that inhibits the measured activity by half. Consider `CCOC(=O)c1c(NC(C)=O)sc(C(C)=O)c1-c1ccc(Cl)cc1` [APOGEE B], for which the IC50 was found to be 71 µM.
